The source made the active and inactive calls. The calls are words filed in the database; no cut-off is given here.
Key:
Daoy [1] = test: Antiproliferative activity against human Daoy cells assessed as reduction in cell viability at 0.1 to 250 uM measured after 72 hrs by MTT assay; assay type: functional, cell-based; settings: dose 0.1-250 µM
U-251 [2] = test: Antiproliferative activity against human U-251 cells assessed as reduction in cell viability at 0.1 to 250 uM measured after 72 hrs by MTT assay; assay type: functional, cell-based; settings: dose 0.1-250 µM
MDA-MB-231 [3] = test: Antiproliferative activity against human MDA-MB-231 cells assessed as reduction in cell viability at 0.1 to 250 uM measured after 72 hrs by MTT assay; assay type: functional, cell-based; settings: dose 0.1-250 µM
U-87 MG [4] = test: Antiproliferative activity against human U87 cells assessed as reduction in cell viability at 0.1 to 250 uM measured after 72 hrs by MTT assay; assay type: functional, cell-based; settings: U-87MG ATCC, dose 0.1-250 µM
U-251 [5] = test: Antiproliferative activity against human U-251 cells assessed as reduction in cell viability measured after 72 hrs by MTT assay; assay type: functional, cell-based; settings: U-251, 72 h
U-87 MG [6] = test: Antiproliferative activity against human U87 cells assessed as reduction in cell viability measured after 72 hrs by MTT assay; assay type: functional, cell-based, U-87MG ATCC
U-251 [7] = test: Induction of cell cycle arrest in human U-251 cells assessed as increase in accumulation of cells at G1 phase at 0.1 uM measured after 72 hrs by propidium iodide staining based flow cytometry; assay type: functional
Daoy [8] = test: Antiproliferative activity against human Daoy cells assessed as reduction in cell viability measured after 72 hrs by MTT assay; assay type: functional, cell-based
U-251 [9] = test: Induction of apoptosis in human U-251 cells assessed as increase in accumulation of cells at sub-G1 phase at 0.1 uM measured after 72 hrs by propidium iodide staining based flow cytometry; assay type: functional, cell-based
MDA-MB-231 [10] = test: Antiproliferative activity against human MDA-MB-231 cells assessed as reduction in cell viability measured after 72 hrs by MTT assay; assay type: functional, cell-based; settings: MDA-MB-231, 72 h
U-251 [11] = test: Induction of cell cycle arrest in human U-251 cells assessed as accumulation at G1 phase at 1 uM measured after 72 hrs by propidium iodide staining based flow cytometry; assay type: functional
U-251 [12] = test: Induction of cell cycle arrest in human U-251 cells assessed as accumulation at S phase at 1 uM measured after 72 hrs by propidium iodide staining based flow cytometry; assay type: functional
U-251 [13] = test: Induction of cell cycle arrest in human U-251 cells assessed as accumulation at G2/M phase at 1 uM measured after 72 hrs by propidium iodide staining based flow cytometry; assay type: functional

| IC50 (U-251 [5]) | IC50 (U-87 MG [6]) | IC50 (MDA-MB-231 [10]) | SMILES | Activity (Daoy [1]) | Activity (U-251 [2]) | Activity (MDA-MB-231 [3]) | Activity (U-87 MG [4]) | Activity (U-251 [7]) | IC50 (Daoy [8]) | Activity (U-251 [9]) | Activity (U-251 [11]) | Activity (U-251 [12]) | Activity (U-251 [13]) |
| --- | --- | --- | --- | --- | --- | --- | --- | --- | --- | --- | --- | --- | --- |
| – | – | – | O=C1C[C@H]2O[C@@H]([C@@H](O)c3ccccc3)[C@@H](O)[C@H]2O1 | inactive | inactive | inactive | inactive | – | – | – | – | – | – |
| – | – | – | O=C1C[C@H]2O[C@@H]([C@H](O)c3ccccc3)[C@@H](O)[C@H]2O1 | inactive | inactive | inactive | inactive | – | – | – | – | – | – |
| 0.106 µM | 0.186 µM | 0.482 µM | COc1cccc2c1C(=O)c1c(O)c3c(c(O)c1C2=O)C[C@@](O)(C(=O)CO)C[C@@H]3O[C@H]1C[C@H](N)[C@H](O)[C@H](C)O1 [DOXORUBICIN] | – | – | – | – | Active | 0.0629 µM | Active | – | – | – |
| 529 µM | 7.61 µM | – | O=C1C[C@H]2O[C@@H](CI)[C@@H](O)[C@H]2O1 | – | – | – | – | – | 141 µM | – | inactive | inactive | inactive |
| – | – | – | O=C1C[C@H]2O[C@@H](CO)[C@@H](O)[C@H]2O1 | inactive | inactive | inactive | inactive | – | – | – | – | – | – |
| – | – | – | O=C1C[C@H]2O[C@@H](CO)[C@@H](OCc3ccccc3)[C@H]2O1 | inactive | inactive | inactive | inactive | – | – | – | – | – | – |
| – | – | – | O=C1C[C@H]2O[C@H](CO)[C@@H](O)[C@H]2O1 | inactive | inactive | inactive | inactive | – | – | – | – | – | – |
| 1.34 µM | 32.4 µM | 535 µM | O=C(/C=C/c1ccccc1)O[C@H](c1ccccc1)[C@@H]1O[C@@H]2CC(=O)O[C@@H]2[C@@H]1O | – | – | – | – | – | 612 µM | – | inactive | inactive | inactive |
| – | – | – | O=C1C[C@H]2O[C@H](CO)[C@@H](OCc3ccccc3)[C@H]2O1 | inactive | inactive | inactive | inactive | – | – | – | – | – | – |

— ChEMBL document CHEMBL4834475, “Synthesis of anti-proliferative [3.3.0]furofuranone derivatives by lactonization and functionalization of C-glycosyl compounds” (Bioorg Med Chem, 2021)
